{"source": "patent US11925649B2", "about": "“Treatments for diabetic neuropathy” (University of Manitoba, priority 2010, dated 2024)", "key": {"[1]": {"system": "mitochondria from lumbar DRG of STZ-diabetic rats", "assay": "Mitochondrial respiratory chain activity in lumbar DRG of STZ-diabetic rats", "assay_type": "in vivo, rat", "details": "daily s.c. during last eight weeks, 20 weeks", "text": "The rats were then culled and subsequently the lumbar DRG were isolated and rinsed in ice-cold solution containing STE buffer (250 mmol/l sucrose, 10 mmol/l Tris-HCl, 1 mmol/l EDTA, pH 7.4), and then homogenized with a polytron homogenizer ([…] GmbH, Switzerland) using 3×7.5 s grinding pulses at 30 s intervals according to the method taught by Chowdhury et al. (2010).\nMitochondrial respiratory chain activity in freshly isolated mitochondria from lumbar DRG of age-matched control, diabetic, and pirenzepine-treated diabetic rats was determined using a Clarke-type electrode (Oroboros Oxygraph-2K; Oroboros Instruments, Innsbruck, Austria) following the method taught by Chowdhury et al. (2005, Biochem Biophys Res Commun. 333: 1139-1145), in the presence of specific substrates and inhibitors of the mitochondrial respiratory chain (FIG. 19). Basal respiration in lumbar DRG mitochondria is stated as respiration at state 4 with energetic substrates, pyruvate and malate (P+M). Coupled respiration at state 3 was induced by addition of ADP. Then, the uncoupled rate was determined by adding the uncoupling agent, carbonylcyanide p-trifluoromethoxyphenylhydrazone (FCCP). Ascorbate (Asc) and N,N,N′,N′-tetramethyl-p-phenylenediamine (TMPD) were then added to determine the capacity of cytochrome c oxidase (complex IV). TMPD is an artificial redox mediator that assists transfer of electrons from ascorbate to cytochrome c."}, "[2]": {"system": "DRG sensory neurons from wildtype mice", "assay": "Neurite outgrowth in sensory neuron cultures from wildtype mice", "assay_type": "cell-based, mouse", "details": "1 μM, 24 hr, low dose growth factors"}, "[3]": {"system": "STZ-diabetic Swiss Webster mice", "assay": "Reversal of diabetic sensory neuropathy with oral dosing", "assay_type": "in vivo, mouse", "description": "Male out-bred Swiss Webster mice were made diabetic with 2 injections of 90 mg/kg STZ on consecutive days. […] The mice were maintained for 8 weeks after STZ injections."}, "[4]": {"system": "STZ diabetic Sprague Dawley rats", "assay": "Reversal of thermal hypoalgesia in diabetic rats, subcutaneous", "assay_type": "in vivo, rat", "details": "10 mg/kg daily s.c. from week 12; 20th week, 8 weeks of treatment", "description": "One group of adult male Sprague Dawley rats were made diabetic with a single intraperitoneal injection of 75 mg/kg STZ, while a second group of adult male rats were maintained as non-diabetic controls. The two groups of rats were monitored for the onset of […] by assessing thermal latency at 4-wk intervals."}, "citrate synthase": {"system": "citrate synthase", "assay": "Citrate synthase activity in DRG of STZ-diabetic mice", "assay_type": "in vivo, mouse", "details": "daily injections for 8 weeks, lumbar DRG", "description": "All measurements of enzymatic activities in lumbar DRG preparations were performed spectrophotometrically using a temperature controlled Ultrospec 2100 UV-visible spectrophotometer (Biopharmacia Biotech, Uppsala, Sweden) using the methods taught by Chowdhury et al. (2010). Complex I activity was measured as rotenone-sensitive NADH: cytochrome c reductase activity. Freshly prepared assay buffer (50 mmol/l K-phosphate pH 7.4, 1 mmol/l KCN, 100 μmol/l NADH) and 10 μg protein of DRG homogenate preparation were added to the cuvette and preincubated for 3 min at 25° C. After addition of 100 μmol/l oxidized cytochrome c, the reaction was followed for 2 minutes at 550 nm and then for 2 more minutes after addition of 25 μmol/l rotenone to allow calculation of the rotenone-sensitive Complex I activity. Complex IV activity was measured at 25° C. by monitoring the absorbance decrease of reduced cytochrome c at 550 nm as disclosed by Chowdhury et al. (2000, Clin. Chim. Acta 298: 157-173). […] Activity of the Krebs cycle enzyme, citrate synthase, was determined at 25° C. in medium containing 150 mmol/l Tris-HCl (pH 8.2), 0.02% laurylmaltoside, 0.1 mmol/l dithionitrobenzoic acid and 5 μg protein according to the method of Chowdhury et al (2007, Free Radic. Res. 41: 1116-1124). The reaction was initiated by addition of 100 μmol/l acetyl CoA and changes in absorbance at 412 nm were measured for 1 minute. […]"}, "[5]": {"system": "DRG sensory neurons from M1R knockout mice", "assay": "Neurite outgrowth in sensory neuron cultures from M1R knockout mice", "assay_type": "cell-based, mouse", "details": "1 μM, 24 hr"}, "[6]": {"system": "STZ-diabetic Sprague Dawley rats", "assay": "Prevention of tactile allodynia and sensory nerve conduction slowing in diabetic rats", "assay_type": "in vivo, rat", "description": "Two groups of adult female Sprague Dawley rats were made diabetic with a single intraperitoneal injection of 55 mg/kg STZ. […] A third group of adult male rats was maintained as non-diabetic controls. The three groups of rats were monitored for the onset of diabetic painful neuropathy by measuring paw tactile response thresholds at weeks 5 and 9 of diabetes, as taught by Calcutt (1996, Pain: 68:293-299). […] Sensory nerve conduction velocity (SNCV) was measured in the same cohorts of rats after 8 weeks of diabetes by measuring under isoflurane anesthesia, the latency of H waves in the electromyogram of interosseous muscles following electrical stimulation of the sciatic nerve at the sciatic notch and Achilles tendon and then measuring the distance between the two points of nerve stimulation, as taught by Calcutt (J. Clin. Invest. 111:507-514, 2003)."}, "[7]": {"details": "daily oral gavage for 8 weeks from week 8"}}}
{"compound": "CN1CCN(CC(=O)N2c3ccccc3C(=O)Nc3cccnc32)CC1", "note": "[pirenzepine, 11-[2-(4-methylpiperazin-1-yl)acetyl]-5H-pyrido[2,3-b][1,4]benzodiazepin-6-1]", "values": [{"measurement": "capacity of cytochrome c oxidase (complex IV) (Asc+TMPD)", "setting": "[1]", "value": "not significantly different from the non-diabetic controls"}, {"measurement": "coupled respiration (P+M+ADP)", "setting": "[1]", "value": "not significantly different from the non-diabetic controls"}, {"measurement": "uncoupled respiration (FCCP)", "setting": "[1]", "value": "not significantly different from the non-diabetic controls"}, {"measurement": "basal respiration rates with pyruvate and malate (P+M)", "setting": "[1]; vs control and diabetic rats", "value": "similar"}, {"measurement": "neurite outgrowth compared with LD control", "setting": "[2]", "value": 2, "unit": "fold"}, {"measurement": "loss of IENF", "setting": "[3]; [7]", "value": "reversed loss"}, {"measurement": "loss of SNP", "setting": "[3]; [7]", "value": "reversed loss"}, {"measurement": "thermal hypoalgesia", "setting": "[3]; [7]", "value": "reversed thermal hypoalgesia"}, {"measurement": "efficacy of oral formulation", "setting": "[3]; dissolved in water, administered orally to mice", "value": "exhibited efficacy"}, {"measurement": "thermal latency", "setting": "[4]", "value": "dropped to approximate the levels in the non-diabetic control rats"}, {"measurement": "activity of citrate synthase", "setting": "citrate synthase", "value": "restored the deficits"}, {"measurement": "neurite outgrowth", "setting": "[5]", "value": "did not enhance neurite outgrowth"}, {"measurement": "paw tactile response thresholds", "setting": "[6]; 10 mg/kg daily s.c., after 5 weeks of diabetes", "value": "significantly higher than vehicle treated diabetic rats"}, {"measurement": "sensory nerve conduction velocity (SNCV)", "setting": "[6]; 10 mg/kg daily s.c., after 8 weeks of diabetes", "value": "partially prevented this deficit"}, {"measurement": "paw tactile response thresholds", "setting": "[6]; 10 mg/kg daily s.c., week 9 of diabetes", "value": "not different from control rats"}, {"measurement": "paw tactile allodynia", "setting": "[6]; daily s.c., after 5 or 9 weeks of treatment", "value": "prevents paw tactile allodynia"}]}
